Key:
SesnTKO HEK293T cells = assay: mTORC1 activation (p70S6K1) in HEK293T cells null for all three Sestrin isoforms; format: cell-based; conditions: leucine-starved 50 minutes, treatment 10 minutes
Method: All cell lines were cultured in DMEM (Corning, #MT10013CV) supplemented with 10% heat-inactivated FBS (Gibco, #16140–071). All cell lines were maintained at 37°C and 5% CO2. For amino acid starvation, cells were rinsed once with and incubated Amino acid-free RPMI (US Biologicals, #R8999-04A) supplemented with 10% dialyzed FBS (Gibco, #26400044) for 50 min followed by treatment with NV-5297, leucine, or vehicle for 10 minutes. For leucine starvation, cells were rinsed once with and incubated in leucine-free DMEM (AthenaES, #0420) supplemented with 10% dialyzed FBS (Gibco, #26400044) for 50 minuted followed by treatment with NV-5297, leucine, or vehicle for 10 minutes.
To ascertain if Sestrins and the GATOR pathway are required for NV-5297 activity, we tested mTORC1 activation in cells null for either all three Sestrin isoforms [SesnTKO] or for the GATOR1 component Npr13 [Npr13KO] [44]. […]
(A) Activation of the mTORC1 pathway by NV-5297. […] Representative immunoblots of ^T389pS6K1 and quantification of the normalized level of ^T389pS6K1 from 8 independent experiments (F) show TORC1 activity in unedited HEK-293T cells, HEK-293T cells deficient for Sestrin 1 (Sesn1), 2 (Sesn2) and 3 (Sesn3) (D) or HEK-293T cells deficient for the GATOR1 component Nprl3 (E) after 50 minutes leucine starvation followed by the addition of vehicle, NV-5297 or leucine for 10 minutes. […]

[1] = target: T1, Sestrin2/GATOR2 interaction (Homo sapiens, UniProt P58004); assay: Intact cells-based Sestrin2/GATOR2 protein-protein interaction assay, Flag-WDR24 293T cells; format: cell-based; conditions: 10 minutes
T1 construct: endogenous in cells; host or cells: Flag-WDR24 293T (HEK293T) cells
T1 sequence (P58004 1-480): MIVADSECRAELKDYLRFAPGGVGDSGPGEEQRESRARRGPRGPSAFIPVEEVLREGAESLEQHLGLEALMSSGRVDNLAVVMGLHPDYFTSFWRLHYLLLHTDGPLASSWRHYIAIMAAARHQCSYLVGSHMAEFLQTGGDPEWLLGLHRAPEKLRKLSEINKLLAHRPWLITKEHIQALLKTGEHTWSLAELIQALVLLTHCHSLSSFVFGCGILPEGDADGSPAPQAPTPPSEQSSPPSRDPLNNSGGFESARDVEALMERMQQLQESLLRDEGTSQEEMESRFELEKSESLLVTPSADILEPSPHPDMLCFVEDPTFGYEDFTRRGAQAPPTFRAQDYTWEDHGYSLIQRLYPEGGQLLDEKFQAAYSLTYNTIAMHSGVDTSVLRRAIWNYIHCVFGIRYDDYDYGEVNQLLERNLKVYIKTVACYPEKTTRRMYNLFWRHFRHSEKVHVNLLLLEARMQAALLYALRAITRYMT
Method: Flag-WDR24 293T cells were washed and placed in leucine-free DMEM supplemented 10% dFBS for 50 minutes followed by treatment with NV-5297, leucine or vehicle for 10 minutes. Cells were rinsed once with ice-cold PBS and immediately lysed with Triton lysis buffer (1% Triton, 10 mM β-glycerol phosphate, 10 mM pyrophosphate, 40 mM Hepes pH 7.4, 2.5 mM MgCl2 and 1 tablet of EDTA-free protease inhibitor). The cell lysates were cleared by centrifugation at 13,200 rpm at 4°C in a microcentrifuge for 10 minutes. Prior to immunoprecipitations, an aliquot of lysate was taken for SDS-PAGE and immunoblotting for pS6K1, S6K1 and tubulin. For anti-FLAG immunoprecipitations, the FLAG-M2 affinity gel was washed 3 times with Triton lysis buffer, and 30 μl of a 50/50 slurry of the FLAG-M2 affinity gel was then added to approximately 2 mg of clarified cell lysates and incubated with rotation for 3 hours at 4°C. Following immunoprecipitation, the beads were washed one time with Triton wash buffer containing 500 mM NaCl. Immunoprecipitated proteins were denatured, resolved by SDS-PAGE, and analyzed by immunoblotting.
Next, Sestrin2/GATOR2 protein-protein interactions in response to NV-5297 were measured using cell-free assays and in vitro. For this, HEK293T cells stably expressing flag-WDR24, a component of GATOR2 [44], were used. The cell-free assays utilized Sestrin2/GATOR2 complexes immunoprecipitated from amino acid-starved cells with an anti-flag antibody.

## CC(C)(C[C@H](N)C(=O)O)C(F)(F)F [NV-5297, (S)-2-amino-5,5,5-trifluoro-4,4-dimethylpentanoic acid]
SesnTKO HEK293T cells
  p70S6K1 levels: remained unchanged
[1]; added to cell cultures, leucine-starved flag-WDR24 HEK293T cells
  Sestrin2/GATOR2 interaction (GATOR2-associated Sestrin2): disrupted the Sestrin2/GATOR2 interaction in a dose-dependent manner
[1]; leucine-starved flag-WDR24 HEK-293T cells, S1C Fig
  p70S6K1 (T389 pS6K1) level: increased p70S6K1 in a dose-dependent manner

From PMC9423655, “Huntington’s disease phenotypes are improved via mTORC1 modulation by small molecule therapy” (PLoS ONE, 2022)
